The values below come from PubChem BioAssay (NCI).

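Exposure lasted 48 hours, with cells grown in 96-well plates and compounds tested at five concentrations. The concentration for full growth arrest is given as TGI.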

Among the test systems are SNB-75 CNS; EKVX NSCLC; UACC-62 melanoma; HT29 colon; HL-60(TB) leukemia; SF-295 CNS; TK-10 renal; SNB-19 CNS; SR leukemia; SK-MEL-2 melanoma; NCI-H522 lung; OVCAR-8 ovarian; RPMI-8226 leukemia; 786-0 renal; KM12 colon; DU-145 prostate; MCF7 breast; NCI/ADR-RES ovarian; HS 578T breast; A498 renal.
Holding throughout (assay): growth of human tumour cells (NCI), 48 h

As to `CCCCCCCCCCCC[N+]12CC[N+](C)(CC1)CC2`, the TGI in the test with SNB-75 CNS was 37.1 µM; in the test with EKVX NSCLC it was > 100 µM; in the test with UACC-62 melanoma, > 100 µM; in the test with HT29 colon, 51.4 µM; in the test with HL-60(TB) leukemia it was 40.4 µM; in the test with SF-295 CNS, > 100 µM. For the same molecule, the TGI is 5.6 µM in the test with TK-10 renal; 38.7 µM with SNB-19 CNS; 26.7 µM in the test on SR leukemia; > 100 µM in the test on SK-MEL-2 melanoma; 46 µM with NCI-H522 lung; > 100 µM with OVCAR-8 ovarian. Besides, the TGI with RPMI-8226 leukemia is 41.7 µM; with 786-0 renal it was 26.8 µM; with KM12 colon, 20.7 µM.
For `O=C1Nc2ccc(Cl)c(I)c2C1=O`, the TGI in the test with SNB-75 CNS is 50.8 µM; with EKVX NSCLC it was 20.8 µM; with UACC-62 melanoma it was 34.8 µM; in the test with HT29 colon it was 75.9 µM; in the test on HL-60(TB) leukemia it was 41.3 µM; in the test with SF-295 CNS it was 32.3 µM. The TGI in the test on TK-10 renal is > 100 µM; in the test with SNB-19 CNS it was 80.5 µM; in the test on SR leukemia it was 50.7 µM; in the test on SK-MEL-2 melanoma it was 34.2 µM; in the test with NCI-H522 lung, 32 µM; in the test on OVCAR-8 ovarian, 38.1 µM. For the same molecule, the TGI stood at 36.8 µM in the test with 786-0 renal and 76.3 µM with KM12 colon.
`COc1ccc(Nc2nc(N)c(C(=O)c3ccc(Cl)cc3)s2)cc1`: the TGI in the test with SNB-75 CNS was 24.8 µM; with EKVX NSCLC, > 100 µM; with UACC-62 melanoma it was > 94.5 µM; in the test on HT29 colon, 5.28 µM; in the test with HL-60(TB) leukemia it was < 0.0331 µM; in the test with DU-145 prostate, 0.0558 µM. Also, the TGI with SF-295 CNS is 15.1 µM; with TK-10 renal, > 46.3 µM; in the test with SNB-19 CNS it was 31.2 µM; with MCF7 breast, > 32.9 µM; with SK-MEL-2 melanoma it was 38.6 µM; in the test on NCI-H522 lung it was < 0.01 µM. The TGI is 29.7 µM with NCI/ADR-RES ovarian; > 100 µM in the test on HS 578T breast; 15 µM in the test with OVCAR-8 ovarian; < 0.01 µM in the test on RPMI-8226 leukemia; > 100 µM in the test on A498 renal; 11.2 µM in the test on 786-0 renal. For the same molecule, the TGI in the test with KM12 colon came out at 0.536 µM.
As to `CCOC(=O)N1CCC2(CC1)C[C@@](C(C)=O)(c1ccccc1)C(C)O2` (stereo not given in full), the TGI with SNB-75 CNS, in the test on EKVX NSCLC, in the test on UACC-62 melanoma, in the test on HT29 colon, in the test with HL-60(TB) leukemia and in the test with DU-145 prostate was > 100 µM throughout. For the same molecule, the TGI in the test on SF-295 CNS, in the test with TK-10 renal, with SNB-19 CNS, in the test on MCF7 breast, in the test on SK-MEL-2 melanoma and with NCI-H522 lung was > 100 µM in each case. Moreover, the TGI with NCI/ADR-RES ovarian, with HS 578T breast, with OVCAR-8 ovarian, in the test on RPMI-8226 leukemia, in the test on A498 renal and with 786-0 renal was > 100 µM throughout. Further, in the test with KM12 colon, the TGI was > 100 µM.
Turning to `Cc1ccc(Nc2nc(-c3ccc(-c4ccc([N+](=O)[O-])cc4)o3)cs2)cc1`, the TGI in the test with SNB-75 CNS, with UACC-62 melanoma, with HT29 colon, with HL-60(TB) leukemia, with SF-295 CNS and in the test on TK-10 renal was > 100 µM throughout. Besides, the TGI in the test on SNB-19 CNS, in the test on SR leukemia, with SK-MEL-2 melanoma, in the test with OVCAR-8 ovarian, in the test with RPMI-8226 leukemia and in the test on 786-0 renal was > 100 µM each time. In addition, the TGI in the test with KM12 colon was > 100 µM.
In the case of `Cc1nn2c(c1C#N)NNc1c-2sc(=N)nnc1=O`, the TGI with EKVX NSCLC, with UACC-62 melanoma, in the test with HT29 colon, in the test on HL-60(TB) leukemia, in the test with SF-295 CNS and in the test with TK-10 renal was > 100 µM each time. Besides, the TGI with SNB-19 CNS, in the test on SR leukemia, in the test on NCI-H522 lung, in the test on OVCAR-8 ovarian, in the test with RPMI-8226 leukemia and in the test on 786-0 renal was > 100 µM each time. Besides, the TGI with KM12 colon was > 100 µM.
With `CN(C)CCCn1c(Cn2nc3ccccc3n2)nc2cc(C(F)(F)F)ccc21`, the TGI is > 100 µM in the test with EKVX NSCLC; 40.8 µM in the test on UACC-62 melanoma; 46.2 µM with HT29 colon; 16.5 µM with HL-60(TB) leukemia; > 100 µM in the test with DU-145 prostate; > 100 µM with SF-295 CNS. The TGI is 80.6 µM with TK-10 renal; > 100 µM in the test on SNB-19 CNS; 64.7 µM with MCF7 breast; 43.5 µM in the test on SK-MEL-2 melanoma; 31.2 µM in the test with NCI-H522 lung; > 100 µM with NCI/ADR-RES ovarian. For the same molecule, the TGI with HS 578T breast is > 100 µM; in the test with OVCAR-8 ovarian, > 100 µM; with A498 renal, 41.7 µM; in the test with 786-0 renal, 35.3 µM; with KM12 colon, 54.1 µM.
For `CCCCCCCCCCCCOC1C(COCCN2CCCCC2)OC2OC(C)(C)OC21` (stereo not given), the TGI in the test with UACC-62 melanoma came to 3.27 µM; in the test on HT29 colon, 2.53 µM; in the test on HL-60(TB) leukemia it was 3.02 µM; in the test on DU-145 prostate, 21.6 µM; in the test on SF-295 CNS it was 3.15 µM; in the test on TK-10 renal it was 3.55 µM. For the same molecule, the TGI in the test with SNB-19 CNS was determined as 8.07 µM; in the test on MCF7 breast, 3.23 µM; in the test on SK-MEL-2 melanoma it was 3.14 µM; in the test on NCI-H522 lung, 2.97 µM; in the test on NCI/ADR-RES ovarian, 14.4 µM; in the test with HS 578T breast, 4.17 µM. Besides, the TGI with OVCAR-8 ovarian worked out at 3.41 µM; with A498 renal, 29.3 µM; in the test with 786-0 renal, 3.11 µM; with KM12 colon it was 3.06 µM.
For `CC#COS(=O)(=O)c1ccc(C)cc1`, the TGI was > 100 µM in the test with EKVX NSCLC; > 100 µM in the test on UACC-62 melanoma; > 100 µM in the test with HT29 colon; 59.8 µM in the test with HL-60(TB) leukemia; > 100 µM in the test with SF-295 CNS; > 100 µM with TK-10 renal. The TGI with SNB-19 CNS is > 100 µM; in the test with SR leukemia, > 100 µM; in the test on SK-MEL-2 melanoma it was > 100 µM; in the test with NCI-H522 lung it was > 100 µM; in the test on OVCAR-8 ovarian, > 100 µM; with RPMI-8226 leukemia, 60.2 µM. The TGI in the test on 786-0 renal and with KM12 colon was > 100 µM throughout.
